# Laboratory results taken from ChEMBL document CHEMBL5729301, “ASK1 inhibitor compounds and uses thereof” (2022).
# Target: T1, Mitogen-activated protein kinase kinase kinase 5 (Homo sapiens, UniProt Q99683)
# T1 sequence (Q99683 whole entry): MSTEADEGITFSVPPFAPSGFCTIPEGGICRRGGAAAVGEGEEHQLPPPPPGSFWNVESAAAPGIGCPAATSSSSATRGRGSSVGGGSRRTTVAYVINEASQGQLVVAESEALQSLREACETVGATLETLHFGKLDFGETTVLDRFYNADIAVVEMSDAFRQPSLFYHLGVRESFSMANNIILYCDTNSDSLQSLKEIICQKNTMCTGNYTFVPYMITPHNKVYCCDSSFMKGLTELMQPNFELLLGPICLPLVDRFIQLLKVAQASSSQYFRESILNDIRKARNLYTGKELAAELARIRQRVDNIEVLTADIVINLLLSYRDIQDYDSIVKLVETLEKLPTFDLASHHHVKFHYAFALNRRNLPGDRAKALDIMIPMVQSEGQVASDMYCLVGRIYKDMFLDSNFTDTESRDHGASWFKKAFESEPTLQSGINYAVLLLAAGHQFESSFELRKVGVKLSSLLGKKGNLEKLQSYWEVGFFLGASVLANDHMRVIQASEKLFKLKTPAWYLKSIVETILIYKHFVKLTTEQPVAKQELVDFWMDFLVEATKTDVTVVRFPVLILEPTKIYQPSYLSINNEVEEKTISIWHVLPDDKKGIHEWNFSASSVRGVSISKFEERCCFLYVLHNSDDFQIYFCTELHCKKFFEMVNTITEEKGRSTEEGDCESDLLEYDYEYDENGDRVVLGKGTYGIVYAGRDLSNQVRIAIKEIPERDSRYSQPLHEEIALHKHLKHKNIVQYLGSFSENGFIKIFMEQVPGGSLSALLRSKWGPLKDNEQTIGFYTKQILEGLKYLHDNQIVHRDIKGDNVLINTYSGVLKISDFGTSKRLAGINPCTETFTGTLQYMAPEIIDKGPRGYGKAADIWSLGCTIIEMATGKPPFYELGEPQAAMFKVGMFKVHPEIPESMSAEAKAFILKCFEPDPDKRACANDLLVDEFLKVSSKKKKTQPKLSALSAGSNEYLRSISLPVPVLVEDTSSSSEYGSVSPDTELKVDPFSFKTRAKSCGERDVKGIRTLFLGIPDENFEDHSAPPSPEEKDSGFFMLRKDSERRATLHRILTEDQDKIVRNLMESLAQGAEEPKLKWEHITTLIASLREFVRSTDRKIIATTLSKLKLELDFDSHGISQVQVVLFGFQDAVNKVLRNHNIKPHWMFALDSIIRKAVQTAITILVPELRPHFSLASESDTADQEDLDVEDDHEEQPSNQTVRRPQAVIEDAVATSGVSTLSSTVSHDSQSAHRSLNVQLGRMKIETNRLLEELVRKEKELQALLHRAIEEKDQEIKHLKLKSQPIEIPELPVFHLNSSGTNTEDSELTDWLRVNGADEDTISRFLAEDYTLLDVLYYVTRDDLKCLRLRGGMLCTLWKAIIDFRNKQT
# Test: Kinase Assay: The ASK1 enzymatic assay was run following Promega ASK1 Kinase Enzyme System (Cat #V3881). The kit provides the protocol, enzymes and all reagents necessary to run an assay.The compounds, enzyme, substrate and ATP were diluted in provided assay buffer. The final concentration of the enzyme was 50 nM, substrate (Myelin basic protein) 1 μg/mL and ATP 10 μM. The compound and the enzyme were pre-incubated in a 384-well white solid bottom plate (Greiner, Cat #784075) for 10 minutes. After incubation, the substrate and ATP were added and incubated for an additional 60 minutes. After 60 minutes, ADP-Glo™ was added and the plate was incubated for another 40 minutes. After 40 minutes, Kinase Detection Reagent was added and the plate was incubated for 45 minutes. After 45 minutes, the plate was read on a Perkin Elmer EnVision using luminescence read (0.5 seconds/well).
smiles,measurement,value
CC(=O)Nc1cccc(-c2cc3c(s2)C(=O)N(c2cccc(-c4nncn4C4CC4)n2)C3)c1,IC50,< 1000 nM
